In ChEMBL document CHEMBL2146430, “Rational evolution of a novel type of potent and selective proviral integration site in Moloney murine leukemia virus kinase 1 (PIM1) inhibitor from a screening-hit compound” (J Med Chem, 2012):
Activity calls are given as the source filed them. The rule behind the calls is not given here.

What was measured:
[1] = target: T1, Serine/threonine-protein kinase pim-1 (Homo sapiens, UniProt P11309); experiment: Inhibition of PIM1 using 5-FAM-RSRHSSYPAGT-CONH2 as substrate after 2 hrs by electrophoretic mobility shift assay
Target sequence in this assay (P11309 whole entry): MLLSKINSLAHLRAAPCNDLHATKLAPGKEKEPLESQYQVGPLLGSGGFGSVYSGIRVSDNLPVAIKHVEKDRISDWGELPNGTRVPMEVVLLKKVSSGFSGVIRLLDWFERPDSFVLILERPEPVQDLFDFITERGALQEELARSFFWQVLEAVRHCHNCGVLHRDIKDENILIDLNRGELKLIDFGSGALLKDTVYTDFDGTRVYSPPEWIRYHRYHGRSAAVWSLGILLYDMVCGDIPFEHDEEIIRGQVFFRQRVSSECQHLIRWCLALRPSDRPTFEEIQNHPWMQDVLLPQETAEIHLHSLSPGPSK

[2] = target: T2, Serine/threonine-protein kinase pim-2 (Homo sapiens, UniProt Q9P1W9); experiment: Inhibition of PIM2 at 300 nM by electrophoretic mobility shift assay
Target sequence in this assay (Q9P1W9 whole entry, looked up): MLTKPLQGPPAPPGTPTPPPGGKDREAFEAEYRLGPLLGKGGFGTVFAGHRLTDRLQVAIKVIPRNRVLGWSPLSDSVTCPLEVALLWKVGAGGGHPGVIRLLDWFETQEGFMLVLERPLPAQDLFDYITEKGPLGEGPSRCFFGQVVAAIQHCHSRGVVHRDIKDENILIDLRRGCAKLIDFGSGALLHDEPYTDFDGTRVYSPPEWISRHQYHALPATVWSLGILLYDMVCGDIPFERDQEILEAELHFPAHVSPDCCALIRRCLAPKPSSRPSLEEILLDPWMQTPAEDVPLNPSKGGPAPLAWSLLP

[3] = target: T3, Serine/threonine-protein kinase pim-3 (Homo sapiens, UniProt Q86V86); experiment: Inhibition of PIM3 at 300 nM by electrophoretic mobility shift assay
[4] = target: T2, Serine/threonine-protein kinase pim-2; experiment: Inhibition of PIM2 by electrophoretic mobility shift assay
[5] = target: T3, Serine/threonine-protein kinase pim-3; experiment: Inhibition of PIM3 by electrophoretic mobility shift assay
[6] = system: MV4-11; experiment: Growth inhibition of human MV4-11 cells after 48 hrs; type: functional; details: MV4-11, 48 h
[7] = system: WI-38; experiment: Growth inhibition of human WI38 cells after 48 hrs; type: cell-based; details: wi-38, 48 h
[8] = system: MV4-11; experiment: Induction of apoptosis in human MV4-11 cells after 48 hrs by annexin V/propidium iodide staining based flow cytometric analysis; type: functional, cell-based
[9] = system: MV4-11; experiment: Cell cycle arrest in human MV4-11 cells assessed as accumulation at G1 phase after 48 hrs by flow cytometry; type: functional, cell-based
[10] = Metabolic stability in human liver microsomes assessed as compound remaining at 1 uM after 1 hr; type: ADME, Microsome; details: read-out: Stability
[11] = Metabolic stability in mouse liver microsomes assessed as compound remaining at 1 uM after 1 hr; type: ADME, Microsome; details: read-out: Stability
[12] = Metabolic stability in mouse hepatocytes assessed as compound remaining at 1 uM after 2 hrs; type: ADME, cell-based, Hepatocyte; details: read-out: Stability
[13] = target: CYP1A2 (Homo sapiens, UniProt P05177); experiment: Inhibition of CYP1A2 at 10 uM; type: ADME
[14] = target: CYP2C9 (Homo sapiens, UniProt P11712); experiment: Inhibition of CYP2C9 at 10 uM; type: ADME
[15] = target: CYP2C19 (Homo sapiens, UniProt P33261); experiment: Inhibition of CYP2C19 at 10 uM; type: ADME
[16] = target: CYP2D6 (Homo sapiens, UniProt P10635); experiment: Inhibition of CYP2D6 at 10 uM; type: ADME
[17] = target: CYP3A4 (Homo sapiens, UniProt P08684); experiment: Inhibition of CYP3A4 at 10 uM; type: ADME
[18] = target: T4, hERG (KCNH2) (Homo sapiens, UniProt Q12809); experiment: Inhibition of human ERG at 10 uM by patch clamp assay
T4 sequence (Q12809 whole entry): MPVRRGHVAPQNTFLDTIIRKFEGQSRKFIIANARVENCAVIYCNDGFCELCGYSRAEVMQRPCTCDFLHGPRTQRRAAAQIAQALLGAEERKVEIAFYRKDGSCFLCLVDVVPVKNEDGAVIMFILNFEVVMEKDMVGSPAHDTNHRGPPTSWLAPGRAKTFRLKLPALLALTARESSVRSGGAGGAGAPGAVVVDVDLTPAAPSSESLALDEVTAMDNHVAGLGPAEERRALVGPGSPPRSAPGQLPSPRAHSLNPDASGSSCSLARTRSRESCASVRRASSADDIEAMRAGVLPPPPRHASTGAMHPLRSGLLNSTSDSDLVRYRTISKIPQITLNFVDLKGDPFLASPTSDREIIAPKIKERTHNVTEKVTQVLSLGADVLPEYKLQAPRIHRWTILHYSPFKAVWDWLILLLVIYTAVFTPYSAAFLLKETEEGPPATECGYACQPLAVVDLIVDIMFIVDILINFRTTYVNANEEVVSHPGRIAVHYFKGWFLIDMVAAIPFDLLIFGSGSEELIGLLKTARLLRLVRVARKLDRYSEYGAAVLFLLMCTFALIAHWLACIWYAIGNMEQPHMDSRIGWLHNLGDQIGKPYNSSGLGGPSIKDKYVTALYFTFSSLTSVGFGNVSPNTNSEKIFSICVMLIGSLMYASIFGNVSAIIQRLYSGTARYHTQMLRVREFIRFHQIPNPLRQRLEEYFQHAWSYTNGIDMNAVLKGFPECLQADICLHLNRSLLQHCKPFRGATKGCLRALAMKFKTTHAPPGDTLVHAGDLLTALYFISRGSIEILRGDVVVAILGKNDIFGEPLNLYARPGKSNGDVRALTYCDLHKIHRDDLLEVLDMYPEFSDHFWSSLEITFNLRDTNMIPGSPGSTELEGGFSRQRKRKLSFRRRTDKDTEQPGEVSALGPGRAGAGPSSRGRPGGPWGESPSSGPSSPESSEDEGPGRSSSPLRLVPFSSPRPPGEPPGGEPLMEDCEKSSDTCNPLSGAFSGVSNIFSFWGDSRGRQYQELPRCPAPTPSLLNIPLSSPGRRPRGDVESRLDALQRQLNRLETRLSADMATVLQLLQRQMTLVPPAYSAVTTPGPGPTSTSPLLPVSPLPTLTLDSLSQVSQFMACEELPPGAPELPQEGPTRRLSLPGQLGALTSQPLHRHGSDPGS

[19] = target: T4, hERG (KCNH2); experiment: Inhibition of human ERG at 1 uM by patch clamp assay
[20] = target: Receptor-type tyrosine-protein kinase FLT3 (Homo sapiens) (UniProt P36888); experiment: Inhibition of FLT3 at 300 nM by electrophoretic mobility shift assay
Sequence of Receptor-type tyrosine-protein kinase FLT3 (Homo sapiens) (P36888 whole entry): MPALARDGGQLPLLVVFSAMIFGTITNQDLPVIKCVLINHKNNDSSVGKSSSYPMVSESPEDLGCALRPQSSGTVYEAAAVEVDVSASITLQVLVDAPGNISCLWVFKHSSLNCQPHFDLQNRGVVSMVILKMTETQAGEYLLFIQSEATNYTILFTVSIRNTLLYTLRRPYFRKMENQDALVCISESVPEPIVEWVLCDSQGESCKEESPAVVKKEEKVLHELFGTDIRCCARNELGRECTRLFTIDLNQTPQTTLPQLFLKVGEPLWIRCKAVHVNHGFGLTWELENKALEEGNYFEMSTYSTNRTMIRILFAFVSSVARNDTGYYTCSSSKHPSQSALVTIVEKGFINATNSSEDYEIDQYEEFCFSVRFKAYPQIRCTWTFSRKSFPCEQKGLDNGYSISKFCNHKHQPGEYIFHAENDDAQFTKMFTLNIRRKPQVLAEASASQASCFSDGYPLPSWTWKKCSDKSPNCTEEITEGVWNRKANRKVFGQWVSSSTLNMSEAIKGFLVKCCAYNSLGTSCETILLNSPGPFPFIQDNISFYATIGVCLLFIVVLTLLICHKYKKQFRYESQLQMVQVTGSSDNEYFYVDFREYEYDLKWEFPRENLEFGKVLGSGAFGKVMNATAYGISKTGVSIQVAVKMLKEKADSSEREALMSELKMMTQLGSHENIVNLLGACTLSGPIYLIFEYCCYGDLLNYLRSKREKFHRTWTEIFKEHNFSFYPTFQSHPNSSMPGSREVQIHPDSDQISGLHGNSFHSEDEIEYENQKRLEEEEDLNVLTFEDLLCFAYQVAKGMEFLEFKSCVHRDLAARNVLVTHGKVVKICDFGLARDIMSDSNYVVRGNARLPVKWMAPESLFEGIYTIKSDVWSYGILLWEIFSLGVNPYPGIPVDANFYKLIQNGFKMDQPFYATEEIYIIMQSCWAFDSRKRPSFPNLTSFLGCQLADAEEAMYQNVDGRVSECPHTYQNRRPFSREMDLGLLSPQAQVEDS

[21] = target: T1, Serine/threonine-protein kinase pim-1; experiment: Inhibition of PIM1 by electrophoretic mobility shift assay
Target sequence in this assay (P11309 whole entry): as the sequence (P11309 whole entry) above

[22] = target: Receptor-type tyrosine-protein kinase FLT3 (Homo sapiens, UniProt P36888); experiment: Inhibition of FLT3 by electrophoretic mobility shift assay
[23] = target: T1, Serine/threonine-protein kinase pim-1; details: 300 nM
Target sequence in this assay (P11309 whole entry, looked up): as the sequence (P11309 whole entry) above
Description: Inhibition of PIM1 at 300 nM by electrophoretic mobility shift assay

[24] = target: T1, Serine/threonine-protein kinase pim-1; details: MV4-11, 0.01 to 10 uM
Target sequence in this assay (P11309 whole entry, looked up): as the sequence (P11309 whole entry) above
Description: Inhibition of PIM1-mediated BAD phosphorylation at ser136 in human MV4-11 cells at 0.01 to 10 uM after 1 hr by Western blotting

[25] = target: Receptor-type tyrosine-protein kinase FLT3 (Homo sapiens) (UniProt P36888); experiment: Inhibition of FLT3 at 22500 nM by electrophoretic mobility shift assay
[26] = target: Platelet-derived growth factor receptor alpha (Homo sapiens) (UniProt P16234); experiment: Inhibition of PDGFRalpha at 22500 nM by electrophoretic mobility shift assay
Sequence of Platelet-derived growth factor receptor alpha (Homo sapiens) (P16234 whole entry): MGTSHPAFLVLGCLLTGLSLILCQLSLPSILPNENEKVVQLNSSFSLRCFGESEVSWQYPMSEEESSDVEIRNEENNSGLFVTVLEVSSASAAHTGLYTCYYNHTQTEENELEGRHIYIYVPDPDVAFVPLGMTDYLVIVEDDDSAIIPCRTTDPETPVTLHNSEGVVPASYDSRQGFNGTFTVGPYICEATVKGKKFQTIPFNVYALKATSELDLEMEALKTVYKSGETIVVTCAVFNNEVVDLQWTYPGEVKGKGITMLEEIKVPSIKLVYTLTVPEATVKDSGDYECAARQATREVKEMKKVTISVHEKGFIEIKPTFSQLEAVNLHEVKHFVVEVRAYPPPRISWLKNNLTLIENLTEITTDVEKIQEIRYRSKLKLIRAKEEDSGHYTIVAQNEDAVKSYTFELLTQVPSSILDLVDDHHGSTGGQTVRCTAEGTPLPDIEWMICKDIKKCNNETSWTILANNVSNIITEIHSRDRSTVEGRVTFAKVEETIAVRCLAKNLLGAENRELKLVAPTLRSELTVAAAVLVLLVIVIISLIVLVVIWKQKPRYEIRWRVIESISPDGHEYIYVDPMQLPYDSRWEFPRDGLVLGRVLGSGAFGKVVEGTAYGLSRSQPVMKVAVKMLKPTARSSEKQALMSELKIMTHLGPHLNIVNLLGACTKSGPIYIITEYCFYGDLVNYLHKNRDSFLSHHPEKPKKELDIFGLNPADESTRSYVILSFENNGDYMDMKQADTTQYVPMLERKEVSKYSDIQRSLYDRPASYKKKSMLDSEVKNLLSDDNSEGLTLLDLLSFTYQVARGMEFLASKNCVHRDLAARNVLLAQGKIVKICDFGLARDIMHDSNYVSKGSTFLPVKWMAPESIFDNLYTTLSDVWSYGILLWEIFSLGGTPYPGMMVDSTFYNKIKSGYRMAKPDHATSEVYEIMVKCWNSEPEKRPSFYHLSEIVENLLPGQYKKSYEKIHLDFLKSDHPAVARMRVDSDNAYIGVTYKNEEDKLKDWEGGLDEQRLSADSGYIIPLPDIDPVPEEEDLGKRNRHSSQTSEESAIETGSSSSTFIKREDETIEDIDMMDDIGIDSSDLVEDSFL

[27] = target: Tyrosine-protein kinase SYK (Homo sapiens) (UniProt P43405); experiment: Inhibition of SYK at 22500 nM by electrophoretic mobility shift assay
[28] = target: Glycogen synthase kinase-3 beta (Homo sapiens) (UniProt P49841); experiment: Inhibition of GSK3beta at 22500 nM by electrophoretic mobility shift assay
[29] = target: Epidermal growth factor receptor (Homo sapiens) (UniProt P00533); experiment: Inhibition of EGFR at 22500 nM by electrophoretic mobility shift assay
[30] = target: Vascular endothelial growth factor receptor 2 (Homo sapiens) (UniProt P35968); experiment: Inhibition of KDR at 22500 nM by electrophoretic mobility shift assay
[31] = target: Aurora kinase A (Homo sapiens) (UniProt O14965); experiment: Inhibition of Aurora A at 22500 nM by electrophoretic mobility shift assay
[32] = target: Mitogen-activated protein kinase kinase kinase 9 (Homo sapiens) (UniProt P80192); experiment: Inhibition of MLK1 at 22500 nM by ELISA
[33] = target: Serine/threonine-protein kinase 4 (Homo sapiens) (UniProt Q13043); experiment: Inhibition of MST1 at 22500 nM by electrophoretic mobility shift assay
[34] = target: T1, Serine/threonine-protein kinase pim-1; experiment: Inhibition of PIM1 at 22500 nM by electrophoretic mobility shift assay
Target sequence in this assay (P11309 whole entry, looked up): as the sequence (P11309 whole entry) above

[35] = target: T2, Serine/threonine-protein kinase pim-2; experiment: Inhibition of PIM2 at 22500 nM by electrophoretic mobility shift assay
Target sequence in this assay (Q9P1W9 whole entry, looked up): as the sequence (Q9P1W9 whole entry, looked up) above

[36] = target: T3, Serine/threonine-protein kinase pim-3; experiment: Inhibition of PIM3 at 22500 nM by electrophoretic mobility shift assay
[37] = target: T1, Serine/threonine-protein kinase pim-1; experiment: Inhibition of PIM1 at 200 nM by electrophoretic mobility shift assay
Target sequence in this assay (P11309 whole entry, looked up): as the sequence (P11309 whole entry) above

[38] = target: T2, Serine/threonine-protein kinase pim-2; experiment: Inhibition of PIM2 at 200 nM by electrophoretic mobility shift assay
Target sequence in this assay (Q9P1W9 whole entry, looked up): as the sequence (Q9P1W9 whole entry, looked up) above

[39] = target: T3, Serine/threonine-protein kinase pim-3; experiment: Inhibition of PIM3 at 200 nM by electrophoretic mobility shift assay
[40] = target: Receptor-type tyrosine-protein kinase FLT3 (Homo sapiens) (UniProt P36888); experiment: Inhibition of FLT3 at 200 nM by electrophoretic mobility shift assay
[41] = target: Platelet-derived growth factor receptor alpha (Homo sapiens) (UniProt P16234); experiment: Inhibition of PDGFRalpha at 200 nM by electrophoretic mobility shift assay
[42] = target: Death-associated protein kinase 1 (Homo sapiens) (UniProt P53355); experiment: Inhibition of DAPK1 at 200 nM by electrophoretic mobility shift assay
[43] = target: Glycogen synthase kinase-3 beta (Homo sapiens) (UniProt P49841); experiment: Inhibition of GSK3beta at 200 nM by electrophoretic mobility shift assay
[44] = target: Protein kinase C alpha type (Homo sapiens) (UniProt P17252); experiment: Inhibition of PKCalpha at 200 nM by electrophoretic mobility shift assay
[45] = target: Serine/threonine-protein kinase D2 (Homo sapiens) (UniProt Q9BZL6); experiment: Inhibition of PKD2 at 200 nM by electrophoretic mobility shift assay
[46] = target: Rho-associated protein kinase 1 (Homo sapiens) (UniProt Q13464); experiment: Inhibition of ROCK1 at 200 nM by electrophoretic mobility shift assay
[47] = target: T3, Serine/threonine-protein kinase pim-3; experiment: Inhibition of PIM3 at 600 nM by electrophoretic mobility shift assay
[48] = target: Receptor-type tyrosine-protein kinase FLT3 (Homo sapiens) (UniProt P36888); experiment: Inhibition of FLT3 at 600 nM by electrophoretic mobility shift assay
[49] = target: Platelet-derived growth factor receptor alpha (Homo sapiens) (UniProt P16234); experiment: Inhibition of PDGFRalpha at 600 nM by electrophoretic mobility shift assay
[50] = target: Tyrosine-protein kinase SYK (Homo sapiens) (UniProt P43405); experiment: Inhibition of SYK at 600 nM by electrophoretic mobility shift assay
[51] = target: T1, Serine/threonine-protein kinase pim-1; experiment: Inhibition of PIM1 at 600 nM by electrophoretic mobility shift assay
Target sequence in this assay (P11309 whole entry, looked up): as the sequence (P11309 whole entry) above

[52] = target: T2, Serine/threonine-protein kinase pim-2; experiment: Inhibition of PIM2 at 600 nM by electrophoretic mobility shift assay
Target sequence in this assay (Q9P1W9 whole entry, looked up): as the sequence (Q9P1W9 whole entry, looked up) above

[53] = target: T2, Serine/threonine-protein kinase pim-2; details: 250 nM
Target sequence in this assay (Q9P1W9 whole entry, looked up): as above
Description: Inhibition of PIM2 at 250 nM by electrophoretic mobility shift assay

[54] = target: T3, Serine/threonine-protein kinase pim-3; details: 250 nM
Description: Inhibition of PIM3 at 250 nM by electrophoretic mobility shift assay

## CN1CCN(Cc2c(O)ccc3c2O/C(=C\c2c[nH]c4ccccc24)C3=O)CC1
[1]
  IC50: 388 nM

## COc1ccc2c(c1CN1CCNCC1)O/C(=C\c1n[nH]c3ccccc13)C2=O
[2]
  inhibition: 19%
[3]
  inhibition: 98%
[4]
  IC50: 1160 nM
[5]
  IC50: 13 nM
[6]
  GI50: 43 nM
[7]
  Activity: Non-toxic
[8]
  Activity: Dose-dependent effect
[9]
  Activity: Dose-dependent effect
[10]
  remaining at 1 h, 1 µM: > 99%
[11]
  remaining at 1 h, 1 µM: 92%
[12]
  remaining at 2 h, 1 µM: 89%
[13]
  inhibition at 10 µM: 33%
[14]
  inhibition at 10 µM: < 1%
[15]
  inhibition at 10 µM: 54%
[16]
  inhibition at 10 µM: 11%
[17]
  inhibition at 10 µM: 10%
[18]
  inhibition at 10 µM: 60%
[19]
  inhibition at 1 µM: 13%
[1]
  IC50: 3 nM
[20]
  inhibition: Active
[21]
  IC50: 6 nM
[22]
  IC50: 47 nM
[23]
  inhibition: 99%
[24]
  inhibition: inactive

## O=C1/C(=C/c2c[nH]c3ccccc23)Oc2c1ccc(O)c2CN1CCCCCC1
[10]
  remaining at 1 h, 1 µM: 36%
[11]
  remaining at 1 h, 1 µM: 44%
[1]
  IC50: 410 nM
[25]
  inhibition: Active
[26]
  inhibition: Active
[27]
  inhibition: Active
[28]
  inhibition: Active
[29]
  inhibition: Active
[30]
  inhibition: Active
[31]
  inhibition: Active
[32]
  inhibition: Active
[33]
  inhibition: Active
[34]
  inhibition: 77%
[35]
  inhibition: 46%
[36]
  inhibition: 88%

## COc1ccc2c(c1CN1CCNCC1)O/C(=C\c1c[nH]c3ncccc13)C2=O
[37]
  inhibition: > 99%
[38]
  inhibition: 39%
[39]
  inhibition: 99%
[1]
  IC50: 2 nM
[40]
  inhibition: Active
[41]
  inhibition: Active
[42]
  inhibition: Active
[43]
  inhibition: Active
[44]
  inhibition: Active
[45]
  inhibition: Active
[46]
  inhibition: Active

## COc1ccc2c(c1CN1CCNCC1)O/C(=C\c1c[nH]c3cccnc13)C2=O
[1]
  IC50: 447 nM

## CCOc1ccc2c(c1CN1CCNCC1)O/C(=C\c1c[nH]c3ccccc13)C2=O
[1]
  IC50: 6 nM

## O=C1/C(=C/c2c[nH]c3ccccc23)Oc2c1ccc(O)c2CN1CCCNCC1
[1]
  IC50: 102 nM

## O=C1/C(=C/c2c[nH]c3ccccc23)Oc2c1ccc(OCc1ccccc1)c2CN1CCNCC1
[1]
  IC50: 43 nM

## COc1ccc2c(c1CN1CCNCC1)O/C(=C\c1c[nH]c3ccncc13)C2=O
[1]
  IC50: 53 nM

## CCCOc1ccc2c(c1CN1CCNCC1)O/C(=C\c1c[nH]c3ccccc13)C2=O
[1]
  IC50: 12 nM

## O=C1/C(=C/c2c[nH]c3ccccc23)Oc2c1ccc(O)c2CN1CCNCC1
[47]
  inhibition: 97%
[6]
  GI50: 270 nM
[10]
  remaining at 1 h, 1 µM: 90%
[11]
  remaining at 1 h, 1 µM: 71%
[1]
  IC50: 17 nM
[48]
  inhibition: Active
[49]
  inhibition: Active
[50]
  inhibition: Active
[51]
  inhibition: 98%
[52]
  inhibition: 30%

## COc1ccc2c(c1CN1CCNCC1)O/C(=C\c1c[nH]c3ccccc13)C2=O
[6]
  GI50: 95 nM
[10]
  remaining at 1 h, 1 µM: 82%
[11]
  remaining at 1 h, 1 µM: 86%
[53]
  inhibition: 30%
[54]
  inhibition: 98%

## O=C1/C(=C/c2c[nH]c3ccccc23)Oc2c(CN3CCNCC3)cccc21
[1]
  IC50: 20 nM
